This assay addresses T1, Ubiquitin Specific Protease 7 (USP-7) (Homo sapiens, UniProt Q93009).
T1 construct: gene USP7; recombinant USP-7 (BPS Bioscience kit #79256)
The assay can be described thus: Ub-AMC fluorescence enzyme assay; supported by DARTS immunoblotting and t-LiP-MRM in HTLA-230 lysate. It is filed as biochemical.

T1 sequence (Q93009 whole entry): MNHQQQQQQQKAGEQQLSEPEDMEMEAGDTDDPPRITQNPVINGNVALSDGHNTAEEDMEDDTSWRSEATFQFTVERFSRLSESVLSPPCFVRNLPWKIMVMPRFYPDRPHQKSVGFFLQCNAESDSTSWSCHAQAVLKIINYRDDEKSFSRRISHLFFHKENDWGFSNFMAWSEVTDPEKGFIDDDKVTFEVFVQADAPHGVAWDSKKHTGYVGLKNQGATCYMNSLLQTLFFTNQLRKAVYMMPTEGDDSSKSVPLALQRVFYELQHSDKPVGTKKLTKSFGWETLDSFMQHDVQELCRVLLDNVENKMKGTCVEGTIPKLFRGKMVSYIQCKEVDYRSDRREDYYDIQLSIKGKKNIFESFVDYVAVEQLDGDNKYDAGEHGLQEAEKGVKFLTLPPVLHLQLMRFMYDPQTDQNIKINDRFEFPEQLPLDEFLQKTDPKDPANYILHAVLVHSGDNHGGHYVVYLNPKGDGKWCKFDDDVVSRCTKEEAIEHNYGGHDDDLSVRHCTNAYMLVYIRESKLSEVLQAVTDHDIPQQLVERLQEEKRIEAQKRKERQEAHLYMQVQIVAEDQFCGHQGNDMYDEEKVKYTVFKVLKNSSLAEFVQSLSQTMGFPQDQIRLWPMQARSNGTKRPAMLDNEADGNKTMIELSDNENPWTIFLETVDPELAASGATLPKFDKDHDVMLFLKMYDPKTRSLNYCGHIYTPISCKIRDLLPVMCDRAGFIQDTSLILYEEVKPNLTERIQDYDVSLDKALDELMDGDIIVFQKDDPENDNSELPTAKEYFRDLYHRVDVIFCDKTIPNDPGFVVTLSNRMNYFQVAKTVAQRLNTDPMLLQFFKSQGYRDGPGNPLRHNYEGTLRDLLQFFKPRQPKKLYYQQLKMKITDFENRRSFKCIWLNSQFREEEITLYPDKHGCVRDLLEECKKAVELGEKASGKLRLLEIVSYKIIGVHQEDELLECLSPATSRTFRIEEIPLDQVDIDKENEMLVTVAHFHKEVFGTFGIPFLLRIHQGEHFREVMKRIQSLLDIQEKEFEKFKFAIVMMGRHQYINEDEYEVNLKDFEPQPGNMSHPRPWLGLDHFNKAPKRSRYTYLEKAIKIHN

Turning to `CCOC(=O)c1cnn(CC(C)O)c1NC(=O)Nc1cccc(F)c1` (racemic) [STIRUR 41], the IC50 came out at 2770 ± 560 nM.

The IC50 is the concentration that inhibits the measured activity by half.

(Values after PMC10252683, “Targeting USP-7 by a Novel Fluorinated 5-Pyrazolyl-Urea Derivative” (International Journal of Molecular Sciences, 2023).)
